{"source": "patent US9758492B2", "about": "“IDO inhibitors” (Bristol-Myers Squibb Company, priority 2013, dated 2017)", "data": [{"biological_target": "IDO (Homo sapiens, UniProt P14902)", "sequence (P14902 whole entry)": "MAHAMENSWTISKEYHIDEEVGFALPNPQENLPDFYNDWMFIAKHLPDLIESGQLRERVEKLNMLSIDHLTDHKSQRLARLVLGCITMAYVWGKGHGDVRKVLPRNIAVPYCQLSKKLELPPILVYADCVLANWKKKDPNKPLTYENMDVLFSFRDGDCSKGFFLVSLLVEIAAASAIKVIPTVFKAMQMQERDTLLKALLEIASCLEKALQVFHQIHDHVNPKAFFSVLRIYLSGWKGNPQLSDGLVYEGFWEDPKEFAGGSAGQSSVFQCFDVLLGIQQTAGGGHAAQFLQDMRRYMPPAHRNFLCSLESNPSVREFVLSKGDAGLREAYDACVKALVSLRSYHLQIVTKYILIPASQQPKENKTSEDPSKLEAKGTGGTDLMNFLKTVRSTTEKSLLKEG", "test": "LLE_IDO_ABS_DR (IDO assay)", "units": {"IC50": "nM"}, "values": [{"smiles": "O=C(Nc1cc(-c2ccccc2-c2nnn[nH]2)ccc1N(CCC(F)(F)F)Cc1ccc(F)cc1C(F)(F)F)Nc1ccccc1C(F)(F)F", "note": "[Example 338, 1-(4-((4-fluoro-2-(trifluoromethyl)benzyl)(3,3,3-trifluoropropyl)amino)-2′-(1H-tetrazol-5-yl)-[1,1′-biphenyl]-3-yl)-3-(2-(trifluoromethyl)phenyl)urea]", "IC50": 490}, {"smiles": "CC(C)CN(CC(C)C)c1ccc(-c2ccccc2-c2nnn[nH]2)cc1NC(=O)Nc1ccc(F)c(C(F)(F)F)c1", "note": "[Example 271, 1-(4-(diisobutylamino)-2′-(1H-tetrazol-5-yl)-[1,1′-biphenyl]-3-yl)-3-(4-fluoro-3-(trifluoromethyl)phenyl) urea]", "IC50": 1010}, {"smiles": "CCCN(c1ccc(-c2ccccc2C(=O)O)cc1NC(=O)Nc1ccccc1F)C1CCCC1", "note": "[Example 168, 4′-(cyclopentyl(propyl)amino)-3′-(3-(2-fluorophenyl)ureido) biphenyl-2-carboxylic acid]", "IC50": 30}, {"smiles": "Cc1ccc(NC(=O)Nc2cc(-c3ccccc3C(=O)O)ccc2N(CCC(F)(F)F)CC(C)C)cc1", "note": "[Example 198, 4′-(isobutyl(3,3,3-trifluoropropyl)amino)-3′-(3-(p-tolyl)ureido)-[1,1′-biphenyl]-2-carboxylic acid]", "IC50": 210}, {"smiles": "Cc1ccc(NC(=O)Nc2cc(-c3cc(F)ccc3C(=O)O)ccc2N(CC(C)C)CC2CCC2)cc1", "note": "[Example 99, 4′-((cyclobutylmethyl) (isobutyl)amino)-5-fluoro-3′-(3-p-tolylureido)biphenyl-2-carboxylic acid]", "IC50": 90}, {"smiles": "CC(C)CN(c1ccc(-c2ccccc2C(=O)O)cc1NC(=O)Nc1ccccc1F)C(C)C", "note": "[Example 154, 3′-(3-(2-fluorophenyl)ureido)-4′-(isobutyl(isopropyl)amino)biphenyl-2-carboxylic acid]", "IC50": 30}, {"smiles": "CC(C)CN(CC(C)C)c1ccc(-c2ccccc2-c2nnn[nH]2)cc1NC(=O)Nc1ccccc1OC(F)F", "note": "[Example 280, 1-(2-(difluoromethoxy)phenyl)-3-(4-(diisobutylamino)-2′-(1H-tetrazol-5-yl)biphenyl-3-yl)urea]", "IC50": 2390}, {"smiles": "CC(C)CN(c1ccc(-c2ccccc2-c2nnn[nH]2)cc1NC(=O)Nc1ccccc1C(F)(F)F)C1CCCCC1", "note": "[Example 161, 1-(4-(cyclohexyl(isobutyl)amino)-2′-(1H-tetrazol-5-yl)biphenyl-3-yl)-3-(2-(trifluoromethyl)phenyl)urea]", "IC50": 240}, {"smiles": "O=C(Nc1ccc(OC(F)(F)F)cc1)Nc1cc(-c2ccccc2-c2nnn[nH]2)ccc1N1CCC(c2ccccc2)C1", "note": "(racemic) [Example 369, (±)-1-(4-(3-Phenylpyrrolidin-1-yl)-2′-(1H-tetrazol-5-yl)-[1,1′-biphenyl]-3-yl)-3-(4-(trifluoromethoxy)phenyl)urea]", "IC50": 520}, {"smiles": "CC(C)CN(CC(C)C)c1ccc(-c2ccccc2-c2nnn[nH]2)cc1NC(=O)Nc1cccc(-c2cnco2)c1", "note": "[Example 253, 1-(4-(diisobutylamino)-2′-(1H-tetrazol-5-yl)-[1,1′-biphenyl]-3-yl)-3-(3-(oxazol-5-yl)phenyl)urea]", "IC50": 2490}, {"smiles": "CC(C)CN(c1ccc(-c2ccccc2C(=O)O)cc1NC(=O)Nc1ccccc1F)C1CCCCC1", "note": "[Example 122, 4′-(cyclohexyl(isobutyl)amino)-3′-(3-(2-fluorophenyl)ureido) biphenyl-2-carboxylic acid]", "IC50": 3.47}, {"smiles": "Cc1ccc(NC(=O)Nc2cc(-c3ccccc3C(=O)O)ccc2N(C)c2ccccc2C(C)(C)C)cc1", "note": "[Example 481]", "IC50": 1840}, {"smiles": "O=C(Nc1ccc(F)cc1F)Nc1cc(-c2ccccc2-c2nnn[nH]2)ccc1N(CCC(F)(F)F)Cc1ccc(C(F)(F)F)cc1", "note": "[Example 330, 1-(2′-(1H-tetrazol-5-yl)-4-((4-(trifluoromethyl)benzyl)(3,3,3-trifluoropropyl)amino)-[1,1′-biphenyl]-3-yl)-3-(2,4-difluorophenyl) urea]", "IC50": 20}, {"smiles": "Cc1ccc(NC(=O)Nc2cc(-c3cc(F)ccc3C(=O)O)ccc2N(CC(C)C)C2CCCCC2)cc1", "note": "[Example 124, 4′-(cyclohexyl(isobutyl)amino)-5-fluoro-3′-(3-p-tolylureido)biphenyl-2-carboxylic acid]", "IC50": 5.18}]}]}
